PubChem BioAssay (NCI)
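1) Cells in 96-well plates. 2) Compound, 48 h, 5 concentrations. 3) Linear interpolation between surrounding doses. 4) Unreached endpoint = highest concentration. GI50 is the concentration that inhibits growth by half. TGI marks complete inhibition of growth.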

Experiments:
Assay in all cases: NCI-60 cell line screen, 48 h
[1] = test system: SF-539 CNS
[2] = test system: K-562 leukemia
[3] = test system: UO-31 renal
[4] = test system: A498 renal
[5] = test system: SK-MEL-28 melanoma
[6] = test system: NCI-H23 lung
[7] = test system: PC-3 prostate
[8] = test system: MCF7 breast
[9] = test system: SW-620 colon
[10] = test system: MALME-3M melanoma
[11] = test system: TK-10 renal
[12] = test system: M14 melanoma
[13] = test system: MDA-MB-231 breast
[14] = test system: OVCAR-3 ovarian
[15] = test system: HL-60(TB) leukemia
[16] = test system: T-47D breast
[17] = test system: SF-268 CNS
[18] = test system: UACC-257 melanoma
[19] = test system: SNB-75 CNS
[20] = test system: RPMI-8226 leukemia
[21] = test system: HS 578T breast
[22] = test system: SN12C renal
[23] = test system: NCI-H460 lung
[24] = test system: HT29 colon
[25] = test system: BT-549 breast
[26] = test system: SR leukemia
[27] = test system: HCT-15 colon
[28] = test system: OVCAR-5 ovarian
[29] = test system: SK-MEL-5 melanoma
[30] = test system: SNB-19 CNS
[31] = test system: NCI-H522 lung
[32] = test system: LOX IMVI melanoma
[33] = test system: UACC-62 melanoma
[34] = test system: CAKI-1 renal
[35] = test system: HCT-116 colon
[36] = test system: NCI/ADR-RES ovarian
[37] = test system: SK-OV-3 ovarian
[38] = test system: HOP-92 NSCLC
[39] = test system: RXF 393 renal
[40] = test system: 786-0 renal
[41] = test system: COLO 205 colon
[42] = test system: CCRF-CEM leukemia
[43] = test system: MDA-MB-468 breast
[44] = test system: SK-MEL-2 melanoma
[45] = test system: DU-145 prostate
[46] = test system: U251 CNS
[47] = test system: MDA-MB-435
[48] = test system: NCI-H226 lung
[49] = test system: OVCAR-8 ovarian
[50] = test system: HCC-2998 colon
[51] = test system: SF-295 CNS
[52] = test system: A549 NSCLC
[53] = test system: ACHN renal
[54] = test system: OVCAR-4 ovarian
[55] = test system: IGROV1 ovarian
[56] = test system: MOLT-4 leukemia
[57] = test system: HOP-62 NSCLC
[58] = test system: EKVX NSCLC
[59] = test system: KM12 colon

With `N#Cc1ccc(C(=O)CSc2nc3c(c(Nc4ccc(S(N)(=O)=O)cc4)n2)CCC3)cc1` the GI50 [1] was > 22.5 µM, the TGI [1] was > 22.5 µM and the GI50 [2] was > 22.5 µM. For the same compound, the TGI [2] was > 22.5 µM, the GI50 [3] was > 22.5 µM and the TGI [3] was > 22.5 µM. For the same compound, the GI50 [4] was > 22.5 µM, the TGI [4] was > 22.5 µM and the GI50 [5] was > 22.5 µM. For the same compound, the TGI [5] was > 22.5 µM, the GI50 [6] was > 22.5 µM and the TGI [6] was > 22.5 µM. The GI50 [7] was > 22.5 µM, the TGI [7] was > 22.5 µM and the GI50 [8] was > 22.5 µM. For the same compound, the TGI [8] was > 22.5 µM, the GI50 [9] was > 22.5 µM and the TGI [9] was > 22.5 µM. For the same compound, the GI50 [10] was > 22.5 µM, the TGI [10] was > 22.5 µM and the GI50 [11] was > 22.5 µM. For the same compound, the TGI [11] was > 22.5 µM, the GI50 [12] was > 22.5 µM and the TGI [12] was > 22.5 µM. The GI50 [13] was > 22.5 µM, the TGI [13] was > 22.5 µM and the GI50 [14] was > 22.5 µM. For the same compound, the TGI [14] was > 22.5 µM, the GI50 [15] was > 22.5 µM and the TGI [15] was > 22.5 µM. The GI50 [16] was > 22.5 µM, the TGI [16] was > 22.5 µM and the GI50 [17] was > 22.5 µM. The TGI [17] was > 22.5 µM, the GI50 [18] was > 22.5 µM and the TGI [18] was > 22.5 µM. The GI50 [19] was > 22.5 µM, the TGI [19] was > 22.5 µM and the GI50 [20] was > 22.5 µM. The TGI [20] was > 22.5 µM, the GI50 [21] was > 22.5 µM and the TGI [21] was > 22.5 µM. The GI50 [22] was > 22.5 µM, the TGI [22] was > 22.5 µM and the GI50 [23] was > 22.5 µM. For the same compound, the TGI [23] was > 22.5 µM, the GI50 [24] was > 22.5 µM and the TGI [24] was > 22.5 µM. For the same compound, the GI50 [25] was > 22.5 µM, the TGI [25] was > 22.5 µM and the GI50 [26] was > 22.5 µM. For the same compound, the TGI [26] was > 22.5 µM, the GI50 [27] was > 22.5 µM and the TGI [27] was > 22.5 µM. For the same compound, the GI50 [28] was > 22.5 µM, the TGI [28] was > 22.5 µM and the GI50 [29] was > 22.5 µM. The TGI [29] was > 22.5 µM, the GI50 [30] was > 22.5 µM and the TGI [30] was > 22.5 µM. For the same compound, the GI50 [31] was > 22.5 µM, the TGI [31] was > 22.5 µM and the GI50 [32] was > 22.5 µM. The TGI [32] was > 22.5 µM, the GI50 [33] was > 22.5 µM and the TGI [33] was > 22.5 µM. The GI50 [34] was > 22.5 µM, the TGI [34] was > 22.5 µM and the GI50 [35] was > 22.5 µM. The TGI [35] was > 22.5 µM, the GI50 [36] was > 22.5 µM and the TGI [36] was > 22.5 µM. The GI50 [37] was > 22.5 µM, the TGI [37] was > 22.5 µM and the GI50 [38] was > 22.5 µM. For the same compound, the TGI [38] was > 22.5 µM, the GI50 [39] was > 22.5 µM and the TGI [39] was > 22.5 µM. The GI50 [40] was > 22.5 µM, the TGI [40] was > 22.5 µM and the GI50 [41] was > 22.5 µM. The TGI [41] was > 22.5 µM, the GI50 [42] was > 22.5 µM and the TGI [42] was > 22.5 µM. The GI50 [43] was > 22.5 µM, the TGI [43] was > 22.5 µM and the GI50 [44] was > 22.5 µM. For the same compound, the TGI [44] was > 22.5 µM, the GI50 [45] was > 22.5 µM and the TGI [45] was > 22.5 µM. For the same compound, the GI50 [46] was > 22.5 µM, the TGI [46] was > 22.5 µM and the GI50 [47] was > 22.5 µM. For the same compound, the TGI [47] was > 22.5 µM, the GI50 [48] was > 22.5 µM and the TGI [48] was > 22.5 µM. The GI50 [49] was > 22.5 µM, the TGI [49] was > 22.5 µM and the GI50 [50] was > 22.5 µM. For the same compound, the TGI [50] was > 22.5 µM, the GI50 [51] was > 22.5 µM and the TGI [51] was > 22.5 µM. The GI50 [52] was > 22.5 µM, the TGI [52] was > 22.5 µM and the GI50 [53] was > 22.5 µM. For the same compound, the TGI [53] was > 22.5 µM, the GI50 [54] was > 22.5 µM and the TGI [54] was > 22.5 µM. For the same compound, the GI50 [55] was > 22.5 µM, the TGI [55] was > 22.5 µM and the GI50 [56] was > 22.5 µM. The TGI [56] was > 22.5 µM, the GI50 [57] was > 22.5 µM and the TGI [57] was > 22.5 µM. The GI50 [58] was > 22.5 µM, the TGI [58] was > 22.5 µM and the GI50 [59] was > 22.5 µM. The TGI [59] was > 22.5 µM.
